Results reported in patent publication US20260274797A1, “PROPIONIC ACID DERIVATIVE AND USE THEREOF IN MEDICINE” (Xizang Haisco Pharmaceutical Co., Ltd., priority 2022, published 2026).
Counter-ions that a name gives are not always drawn.

Assays:
integrin α4β1 = target: T1, integrin α4β1 (Homo sapiens, UniProt P05556+P13612); assay: Integrin α4β1-mediated cell adhesion assay (Jurkat cells on VCAM); type: cell-based; settings: for IC50: Jurkat cells adhering to VCAM-1, α4β1-mediated cell adhesion; for α4β1/α4β7: selectivity ratio, Jurkat (α4β1)/VCAM-1 IC50 over RPMI-8866 (α4β7)/MadCAM-1 IC50
T1 construct: Jurkat cells were collected, washed twice using DPBS buffer; endogenous in cells; host or cells: Jurkat cells
T1 sequence (P05556 21-798, one chain of several): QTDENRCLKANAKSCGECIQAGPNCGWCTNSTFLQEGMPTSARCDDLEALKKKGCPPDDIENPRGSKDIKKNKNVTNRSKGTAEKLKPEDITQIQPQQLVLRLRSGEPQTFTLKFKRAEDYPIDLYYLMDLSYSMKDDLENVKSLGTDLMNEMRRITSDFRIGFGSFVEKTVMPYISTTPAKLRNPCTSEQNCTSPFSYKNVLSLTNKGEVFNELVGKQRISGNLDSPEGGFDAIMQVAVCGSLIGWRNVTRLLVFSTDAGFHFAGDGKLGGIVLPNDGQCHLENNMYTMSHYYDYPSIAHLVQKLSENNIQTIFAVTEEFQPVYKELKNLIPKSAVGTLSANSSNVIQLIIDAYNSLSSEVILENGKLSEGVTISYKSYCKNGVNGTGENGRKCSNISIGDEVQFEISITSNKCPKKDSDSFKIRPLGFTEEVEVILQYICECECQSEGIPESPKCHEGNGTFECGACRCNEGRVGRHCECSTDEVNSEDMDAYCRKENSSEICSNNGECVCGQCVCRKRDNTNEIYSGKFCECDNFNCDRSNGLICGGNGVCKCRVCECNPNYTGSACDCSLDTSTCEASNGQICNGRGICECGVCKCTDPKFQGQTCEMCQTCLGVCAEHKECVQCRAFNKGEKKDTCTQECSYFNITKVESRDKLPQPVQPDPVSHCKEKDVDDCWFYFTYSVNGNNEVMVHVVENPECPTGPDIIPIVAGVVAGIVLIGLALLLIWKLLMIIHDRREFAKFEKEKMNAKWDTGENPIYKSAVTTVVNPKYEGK
Experimental: VCAM was formulated into a final concentration of […] with a coating buffer, 50 μl of the solution was transferred to a 96-well plate, and the plate was coated with same at 4° C. overnight. The plate was washed with coating buffer three times, then 150 μl of a blocking solution (coating buffer containing 1% BSA) was added, and the plate was blocked at 37° C. for 1 h. Jurkat cells were collected, washed twice using DPBS buffer, and then resuspended to 4×10^6 cells/ml with an action buffer. 50 μl of the cell suspension was transferred to a 96-well plate so that the cell density reached 2×10^5 cells/well. Then 1 μl of the test compound at different concentration or DMSO was added and the plate was incubated at 37° C. for 1 h. The plate was washed with coating buffer to remove non-adherent cells. 50 μl of a substrate (4-nitrophenyl-N-acetyl-β-D-glucosaminide) was added and the plate was incubated at 37° C. for 2 h.
Coating buffer: DMEM+20 mM HEPES+0.4 mM MnCl2
Action buffer: DMEM+20 mM HEPES+0.1% BSA+0.4 mM MnCl2
DMEM: dulbecco's modified eagle medium;
HEPES: 2-[4-(2-hydroxyethyl)piperazin-1-yl]ethanesulfonic acid

integrin α4β7 = target: T2, integrin α4β7 (Homo sapiens, UniProt P13612+P26010); assay: Integrin α4β7 cell adhesion assay (RPMI8866 cells on MAdCAM-1); type: cell-based; settings: RPMI8866 cells adhering to MAdCAM-1; α4β7-mediated cell adhesion; read-out: RPMI-8866 (α4β7)/MadCAM-1 IC50
T2 sequence (P13612 34-1032): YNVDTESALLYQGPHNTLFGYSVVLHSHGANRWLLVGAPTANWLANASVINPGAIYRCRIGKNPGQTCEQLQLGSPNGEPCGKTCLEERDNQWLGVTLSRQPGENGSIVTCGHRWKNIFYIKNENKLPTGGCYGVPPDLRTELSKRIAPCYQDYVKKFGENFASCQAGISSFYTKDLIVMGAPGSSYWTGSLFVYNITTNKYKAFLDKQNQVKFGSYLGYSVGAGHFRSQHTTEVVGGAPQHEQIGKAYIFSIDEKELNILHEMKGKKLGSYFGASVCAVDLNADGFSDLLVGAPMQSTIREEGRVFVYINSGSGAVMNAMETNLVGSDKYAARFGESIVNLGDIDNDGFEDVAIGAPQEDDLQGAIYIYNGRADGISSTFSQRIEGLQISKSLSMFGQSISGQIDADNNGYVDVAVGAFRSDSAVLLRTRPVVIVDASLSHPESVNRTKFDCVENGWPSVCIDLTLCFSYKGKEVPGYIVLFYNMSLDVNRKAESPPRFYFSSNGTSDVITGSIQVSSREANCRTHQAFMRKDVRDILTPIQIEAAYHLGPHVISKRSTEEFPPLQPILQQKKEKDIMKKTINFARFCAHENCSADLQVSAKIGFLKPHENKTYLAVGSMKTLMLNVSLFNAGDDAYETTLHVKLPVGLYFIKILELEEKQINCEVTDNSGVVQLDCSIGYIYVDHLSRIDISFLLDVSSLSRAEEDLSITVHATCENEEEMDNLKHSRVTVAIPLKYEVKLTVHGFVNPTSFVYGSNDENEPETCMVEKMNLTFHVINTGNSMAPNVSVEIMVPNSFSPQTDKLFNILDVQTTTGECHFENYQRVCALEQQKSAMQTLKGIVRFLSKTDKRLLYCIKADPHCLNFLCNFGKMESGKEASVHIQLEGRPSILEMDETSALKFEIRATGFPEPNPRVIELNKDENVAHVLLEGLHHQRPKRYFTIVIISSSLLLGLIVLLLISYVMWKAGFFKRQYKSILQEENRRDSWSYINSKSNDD
T2 sequence (P26010 20-798): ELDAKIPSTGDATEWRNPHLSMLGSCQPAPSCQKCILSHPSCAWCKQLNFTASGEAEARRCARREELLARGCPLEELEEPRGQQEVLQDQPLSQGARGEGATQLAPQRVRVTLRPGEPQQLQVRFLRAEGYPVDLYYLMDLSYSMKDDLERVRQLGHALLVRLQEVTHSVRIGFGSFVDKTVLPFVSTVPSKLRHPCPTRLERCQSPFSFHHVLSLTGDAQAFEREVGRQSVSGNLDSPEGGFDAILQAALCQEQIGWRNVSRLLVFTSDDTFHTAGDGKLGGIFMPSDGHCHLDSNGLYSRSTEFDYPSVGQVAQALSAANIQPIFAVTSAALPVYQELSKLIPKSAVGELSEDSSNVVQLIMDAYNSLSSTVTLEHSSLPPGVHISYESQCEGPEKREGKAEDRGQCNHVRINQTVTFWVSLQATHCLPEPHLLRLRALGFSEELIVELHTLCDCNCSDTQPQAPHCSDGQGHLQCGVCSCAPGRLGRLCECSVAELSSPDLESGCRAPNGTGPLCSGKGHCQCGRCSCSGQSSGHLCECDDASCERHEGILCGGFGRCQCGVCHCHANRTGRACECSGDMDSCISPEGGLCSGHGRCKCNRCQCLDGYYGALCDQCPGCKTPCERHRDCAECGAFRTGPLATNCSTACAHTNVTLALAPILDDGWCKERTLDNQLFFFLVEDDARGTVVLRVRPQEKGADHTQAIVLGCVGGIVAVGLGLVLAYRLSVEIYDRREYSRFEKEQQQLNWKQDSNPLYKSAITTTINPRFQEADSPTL
Experimental: MAdCAM-1 was formulated with TBS buffer to a final concentration of […], 50 μl of the solution was transferred to a 96-well plate, and the plate was coated with same at 4° C. overnight. The plate was washed with TBS buffer three times, then 150 μl of a blocking solution (TBS buffer containing 1% BSA) was added, and the plate was blocked at 37° C. for 1 h. […] 50 μl of the cell suspension was transferred to a 96-well plate so that the cell density reached 2×10^5 cells/well. Then 1 μl of the compound at different concentrations or DMSO was added and the plate was incubated at 37° C. for 1 h or 2 h. The plate was washed with TBS buffer to remove non-adherent cells. 50 μl of a substrate (4-nitrophenyl-N-acetyl-o-D-glucosaminide) was added and the plate was incubated at 37° C. for 2 h. […] The IC50 value was calculated using GraphPad Prism 6 software.

[1] = Test of stability in liver microsomes (rat); type: in vitro ADME; settings: 1 μM test compound, NADPH, 37° C.
Experimental: (§1) In this experiment, liver microsomes of three species, including monkey, rat and mouse, were used as in vitro models to evaluate the metabolic stability of the test compound.
(§2) At 37° C., 1 μM of the test compound was co-incubated with microsomal protein and coenzyme NADPH. At given time points of the reaction (5 min, 10 min, 20 min, 30 min, and 60 min), the reaction was terminated by adding ice-cold acetonitrile containing an internal standard. The LC-MS/MS method was used to measure the concentration of the test compound in the sample. T1/2 was calculated using the natural logarithm (ln) of the residual rate of the drug in the incubation system and the incubation time. In addition, the intrinsic clearance in liver microsomes CLint(mic) and the intrinsic clearance in liver CLint(Liver) were further calculated.

[2] = Test of stability in liver microsomes (mouse); type: in vitro ADME; settings: 1 μM test compound, NADPH, 37° C.
Experimental: as §1, §2

[3] = Pharmacokinetic test in rats; type: in vivo, SD rats
Experimental: Experimental animals: Male SD rats, about 220 g, 6-8 weeks old, 6 rats/compound, purchased from Chengdu Ddossy Experimental Animals Co., Ltd.
Experimental design: on the day of the test, 6 SD rats/compound were randomly grouped according to their body weights. The animals were fasted with water available for 12 to 14 h one day before the administration and were fed 4 h after the administration.

[4] = Test of stability in liver microsomes (monkey); type: in vitro ADME; settings: 1 μM test compound, NADPH, 37° C.
Experimental: as §1, §2

[5] = read-out: Hepatic intrinsic clearance CLint(liver)
[6] = read-out: Hepatic microsomal intrinsic clearance CLint (mic)

SMILES: Cc1cc(F)cc(C)c1-c1cc(C(CC(=O)O)NC(=O)C(CC(C)C)n2cc(CC3CCN(C(C)C)CC3)c(C(F)(F)F)cc2=O)cc2c1CCC2 (stereo not shown) [Trifluoroacetate salt of compound 22-2]
- IC50 (integrin α4β1): > 100 nM
- IC50 (integrin α4β7): < 0.5 nM

SMILES: Cc1cc(F)cc(C)c1-c1c(F)c(C(CC(=O)O)NC(=O)[C@H](CC(C)C)n2cc(CCC3CCCN3C)c(C(F)(F)F)cc2=O)c(F)c2c1CCC2 (single isomer, unassigned) [Trifluoroacetate salt of compound 28-2]
- IC50 (integrin α4β1): > 100 nM

SMILES: Cc1cc(-c2c(C)cc(F)cc2C)cc([C@H](CC(=O)O)NC(=O)[C@H](CC(C)C)n2cc(CCN(C)C)c(C(F)(F)F)cc2=O)c1F [Control compound A]
- half-life at 1 μM [1]: 35.7 min
- CLint scaled at 1 μM [1, 5]: 69.9 mL/min/kg
- microsomal CLint at 1 μM [1, 6]: 38.8 µL/min/mg
- half-life at 1 μM [2]: 49.3 min
- CLint scaled at 1 μM [2, 5]: 111 mL/min/kg
- microsomal CLint at 1 μM [2, 6]: 28.1 µL/min/mg
- F ([3]; PO: 10 mg/kg vs iv […] (footnote, control compound A)): 23.9%
- AUC ([3]; male, SD, rat, plasma, PO: 10 mg/kg (footnote, control compound A)): 900 ng·h/mL
- clearance ([3]; male, SD, rat, plasma, iv 2.5 mg/kg (footnote, control compound A)): 45.8 mL/min/kg
- half-life at 1 μM [4]: 10.6 min
- CLint scaled at 1 μM [4, 5]: 176 mL/min/kg
- microsomal CLint at 1 μM [4, 6]: 130 µL/min/mg

SMILES: COc1cc(C)c(-c2c(F)c(C(CC(=O)O)NC(=O)C(CC(C)C)n3cc(CCN(C)C)c(C(F)(F)F)cc3=O)c(F)c3c2CCC3)c(C)c1 (single isomer, unassigned) [Trifluoroacetate salt of compound 21-2]
- IC50 (integrin α4β1): > 500 nM
- IC50 (integrin α4β7): < 1 nM

SMILES: [2H]C([2H])([2H])Oc1cc(C)c(-c2c(F)c([C@H](CC(=O)O)NC(=O)C(CC(C)C)n3cc(CCN4CCC4)c(C(F)(F)F)cc3=O)c(F)c3c2CCC3)c(C)c1 (stereo partly shown) [Compound 40-2]
- IC50 (integrin α4β1): > 300 nM
- α4β1/α4β7 (integrin α4β1): 1143
- IC50 (integrin α4β7): < 0.5 nM

SMILES: Cc1ccc2[nH]ncc2c1-c1c(F)c(C(CC(=O)O)NC(=O)[C@H](CC(C)C)n2cc(CCN(C)C)c(C(F)(F)F)cc2=O)c(F)c2c1CCC2 (stereo partly shown) [Compound 33-2]
- IC50 (integrin α4β1): > 100 nM
- α4β1/α4β7 (integrin α4β1): 643
- IC50 (integrin α4β7): < 0.5 nM

SMILES: Cc1cc(F)cc(C)c1-c1c(F)c(C(CC(=O)O)NC(=O)[C@H](CC(C)C)n2cc(CC3CN(C(C)C)C3)c(C(F)(F)F)cc2=O)c(F)c2c1CCC2 (stereo partly shown) [Compound 32-2]
- CL ([3]; IV: 1 mg/kg): 20.2 mL/min/kg

SMILES: Cc1cc(F)cc(C)c1-c1cc(C(CC(=O)O)NC(=O)C(CC(C)C)n2cc(CCN(C)CC3CC3(F)F)c(C(F)(F)F)cc2=O)cc2c1CCC2 (single isomer, unassigned) [Compound 1-2]
- IC50 (integrin α4β1): > 100 nM

SMILES: Cc1cc(F)cc(C)c1-c1c(F)c(C(CC(=O)O)NC(=O)C(CC(C)C)n2cc(CCC3CCN(C)C3)c(C(F)(F)F)cc2=O)c(F)c2c1CCC2 (stereo not shown) [Trifluoroacetate salt of compound 26-2]
- IC50 (integrin α4β1): > 100 nM
- IC50 (integrin α4β7): < 1 nM

SMILES: COc1cc(C)c(-c2c(F)c(C(CC(=O)O)NC(=O)C(CC(C)C)n3cc(CCN(C)C)c(C(F)(F)F)cc3=O)c(F)c3c2CCC3)c(C)c1 (stereo not shown) [Compound 21-A]
- IC50 (integrin α4β1): > 100 nM
